The results in this text go back to patent US11524938B2, “Aromatic sulfonamide derivatives” (Bayer Pharma Aktiengesellschaft, priority 2016, dated 2022).

Values joined by “and” are separate entries in the source; they are usually repeats but may differ in a detail not shown here. Equal entries are not always repeated.

One test concerns the target T1, endogenous P2X4 channels (Homo sapiens, UniProt Q99571).
T1 construct: measure calcium influx through endogenous P2X4 channels into primary human monocytes
T1 sequence (Q99571 1-388): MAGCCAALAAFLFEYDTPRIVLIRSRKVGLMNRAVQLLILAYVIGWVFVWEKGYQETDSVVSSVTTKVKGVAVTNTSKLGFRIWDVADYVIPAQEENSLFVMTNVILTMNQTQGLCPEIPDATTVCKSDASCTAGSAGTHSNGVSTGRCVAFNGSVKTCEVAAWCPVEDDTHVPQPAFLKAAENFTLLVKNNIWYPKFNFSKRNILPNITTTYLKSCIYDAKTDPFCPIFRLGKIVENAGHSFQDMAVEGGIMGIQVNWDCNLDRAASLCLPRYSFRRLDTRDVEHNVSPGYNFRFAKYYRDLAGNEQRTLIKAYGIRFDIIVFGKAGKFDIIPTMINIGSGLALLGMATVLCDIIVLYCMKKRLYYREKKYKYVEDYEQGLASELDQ
The experiment in a line: Human Monocyte P2X4 Assay (FLIPR). Format: cell-based. The settings on record: primary human monocytes, 3 μM BzATP, one value per donor. The protocol:
The principle of the assay is to measure calcium influx through endogenous P2X4 channels into primary human monocytes, following activation by 2′,3′-O-(4-benzoyl-benzoyl)-ATP (Bz-ATP). Intracellular calcium concentration changes were measured with a Flipr® (Molecular Devices) device using a calcium sensitive dye (Fluo-8). In primary monocytes P2X4 is located at the lysosome membrane, therefore exocytosis has to be triggered to expose P2X4 at the cellular membrane.
Human peripheral blood mononuclear cells (PBMCs) from anticoagulated blood (blood cells, BC) were isolated via density gradient centrifugation. Whole blood was diluted 1:3 with PBS. Samples of 30 mL were layered carefully on top of 15 mL Biocoll (BIOCHROM) in 50 mL centrifuge tubes (Falcon). Tubes were centrifuged at 914×g for 25 min at RT without brake. The PBMC layer was removed with a 10 mL pipette and transferred into tubes with ice-cold PBS in a total volume of 50 mL. Cells were washed twice by pelleting at 300×g at 4° C., for 10 min and for 5 min respectively. PBMCs were re-suspended in 10 mL medium (X-vivo, Biozym Scientific) and counted in a Neubauer chamber.
Monocytes were isolated by negative selection using the Monocyte isolation kit II from Miltenyi (#130-091-153) according to the instructions. Isolation should be done fast and cells and solutions should be kept on ice at any time. PBMCs in batches of 10 exp8 cells were pelleted (300×g, 10 min) and re-suspended with 300 μL MACS buffer in a 50 mL Falcon tube. FcR Blocking reagent (100 μl) and Biotin-Ab (100 μl) were added, mixed and incubated on ice for 10 min. MACS buffer (300 μL) and anti-Biotin Micro-beads (100 μL) were added, mixed and incubated on ice for 15 min. Cells were washed by pelleting (300×g for 10 min) and re-suspended in 500 μL MACS buffer. For each batch one separation column was placed in the MACS separator and rinsed with 3 mL MACS buffer. The cell suspension was added to the column, followed by 3×3 mL MACS buffer for washing, and the eluent containing the monocytes was collected. Cells were pelleted (300×g for 10 min), re-suspended in X-vivo medium and counted. Monocytes were seeded into fibronectin-coated micro-plates (384-well, black, flat transparent bottom; Corning #3848) at a density of 30,000 cells/well in 50 μL, and cultivated over night (37° C., 5% CO2).
Test substances were dissolved in 100% DMSO at a stock concentration of 10 mM and stored at −20° C. in aliquots. Serial dilutions (2×) were prepared in DMSO and diluted 500× with assay buffer to generate the antagonist plate. In the Flipr measurement, 10 μL per well were transferred (4× dilution) and a final top concentrations of 5 μM and 0.05% DMSO were obtained in the assay. Agonist BzATP was stored at 10 mM in aliquots and diluted to an intermediate concentration of 15 μM to generate the agonist plate. In the Flipr measurement, 10 μL per well were transferred (5× dilution) so that a final assay concentration of 3 μM was obtained.
For the experiment, the medium of the cell plate was discarded manually and 70 μL/well loading buffer was added and incubated for 1 h (37° C., 5% CO2). Loading buffer contained HBSS (w/o calcium/magnesium), 10 mM Hepes pH 7.4, 5 μM Fluo-8 (AM) (Tebu-bio) and 50 mM methylamine (Sigma) to trigger exocytosis. Loading buffer was discarded manually and 30 μL/well low-calcium assay buffer (5 mM KCl, 145 mM NaCl, 0.5 mM CaCl2, 13 mM glucose, 10 mM Hepes pH 7.4) was added. The antagonist plate was transferred (10 μL/well) and after 15 min at RT the agonist plate (10 μL/well) was transferred.
Agonist addition was recorded for 240 seconds after a 10 second baseline. For analysis, a baseline correction was applied, and the maximum of the curve was extracted. Data were normalized towards 0% inhibition (signal at 3 μM BzATP) and 100% inhibition (absence of BzATP stimulation) and fitted with a four-parameter sigmoidal inhibition curve using Prism GraphPad to obtain IC50 values.

The next test has as its system C57BL/6 mice. The experiment in a line: CFA Inflammation Model in Mice with Pain Behaviour Read Out. As to conditions: oral 0.3, 1, 3 mg/kg, day 2 post-CFA, 1 h after treatment, vs vehicle. Format: in vivo, mouse. The protocol:
Wild type female C57BL/6 mice (Taconic) received intraplantar injection of complete Freund's adjuvant (CFA) (30 μL, 1 mg/mL, Sigma) into the left hind paw under isoflurane anesthesia. Animals were administered orally with example 326 (0.3, 1, and 3 mg/kg, n=10/group) on day 2 post-CFA injection. Spontaneous pain-related behavior in freely moving animals was assessed using the automated dynamic weight bearing device (DWB, Bioseb, France) one hour after compound treatment according to published and validated protocols (Robinson et al., 2012; Tetreault et al., 2011; Gruen et al. 2014). For behavioral testing, the animal was placed inside a Plexiglas chamber in which the exerted pressure on the floor was measured. The animals were allowed to move freely within the apparatus for 5 min and subsequently pain behavior is recorded for a test period of another 5 min. The relative weight distribution is calculated by determining the ratio of the weight put on naïve (contralateral) vs. that put on the intraplantar CFA treated (ipsilateral) paws.
FIG. 3 as nonbinding explanatory example of compounds according to the invention represents the ratio of weight distribution in percent (y-axis) of mice orally treated with example 326 or vehicle 1 hour prior to weight distribution measurement. Each symbol represents the relative weight distribution for one mouse. […]

For the compound `N#Cc1cnn(-c2ccc(NC(=O)Cc3ccccc3Cl)cc2S(N)(=O)=O)c1` [Example 39, 2-(2-Chlorophenyl)-N-[4-(4-cyano-1H-pyrazol-1-yl)-3-sulfamoylphenyl]acetamide], the “Human P2X4 Monocytes (FLIPR Assay) Efficacy for different donors” value on endogenous P2X4 channels is 81% and 78%. For `NS(=O)(=O)c1cc(NC(=O)Cc2ccccc2Cl)ccc1-c1cnn(C(F)F)c1` [Example 326, 2-(2-Chlorophenyl)-N-{4-[1-(difluoromethyl)-1H-pyrazol-4-yl]-3-sulfamoylphenyl}acetamide], the “pain behavior (relative weight distribution, dynamic weight bearing)” value with C57BL/6 mice is listed as “significantly reduced pain behavior”.
